Data reported in ChEMBL document CHEMBL1201862, “PubChem BioAssay data set” (2004).
Several values for one entry are separate records, joined by “and”; a condition that tells them apart may be missing. Equal entries are not always repeated.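 Method: 48-hour compound exposure of cells in 96-well plates, five concentrations, linear interpolation of endpoints. GI50 is the concentration that inhibits growth by half.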 Activity calls are given as the source filed them. Cut-off read from the data, not from the text of the source: active = GI50 up to about 1.1 µM and inactive = higher.

Columns and labels:
Test in all cases: NCI anticancer screen, dose series, 48 h
[1] = system: CCRF-CEM
[2] = system: OVCAR-8
[3] = system: HCC 2998
[4] = system: UO-31
[5] = system: IGROV-1
[6] = system: HCT-116
[7] = system: MDA-MB-435
[8] = system: MDA-N
[9] = system: NCI-H522
[10] = system: UACC-257
[11] = system: TK-10
[12] = system: A498
[13] = system: A549
[14] = system: HCT-15
[15] = system: KM12
[16] = system: HT-29
[17] = system: SK-MEL-5
[18] = system: Hs-578T
[19] = system: HOP-62

SMILES | GI50 [1] | GI50 [2] | GI50 [3] | GI50 [4] | GI50 [5] | GI50 [6] | GI50 [7] | GI50 [8] | GI50 [9] | GI50 [10] | GI50 [11] | GI50 [12] | GI50 [13] | GI50 [14] [µM] | GI50 [15] | GI50 [16] | GI50 [17] | GI50 [18] | GI50 [19]
CC1C(=O)N=C2C(=CN(Cc3ccccc3)c3ccccc32)C(=O)N1C (configuration not stated) | > 100 µM (inactive) | > 100 µM (inactive) | > 100 µM (inactive) | > 100 µM (inactive) | > 100 µM (inactive) | > 100 µM (inactive) | > 100 µM (inactive) | > 100 µM (inactive) | 29.1 µM (inactive) | > 100 µM (inactive) | > 100 µM (inactive) | > 100 µM (inactive) | > 100 µM (inactive) | > 100 | > 100 µM (inactive) | > 100 µM (inactive) | > 100 µM (inactive) | – | –
Cc1c(C(=O)O)sc2nc[nH]c(=O)c12 | – | > 100 µM (inactive) | > 100 µM (inactive) | > 100 µM (inactive) | 84.1 µM (inactive) | > 100 µM (inactive) | > 100 µM (inactive) | – | > 100 µM (inactive) | > 100 µM (inactive) | > 100 µM (inactive) | – | > 100 µM (inactive) | > 100 | > 100 µM (inactive) | > 100 µM (inactive) | > 100 µM (inactive) | 22.6 µM (inactive) | > 100 µM (inactive)
Nc1ccc2ccc(N3CCNCC3)nc2n1 | 31.6 µM (inactive) | > 100 µM (inactive) | 44.2 µM (inactive) | 50.4 µM (inactive) | 19.5 µM (inactive) | 43.2 µM (inactive) | 49.7 µM (inactive) | 75 µM (inactive) | 45.3 µM (inactive) | > 100 µM (inactive) | > 100 µM (inactive) | – | > 100 µM (inactive) | 76.6 | 48.2 µM (inactive) | 33.7 µM (inactive) | – | 47.5 µM (inactive) | 23.9 µM (inactive)
CC[N+](C)(CC)CCN1C(=O)c2ccccc2S1(=O)=O | > 100 µM (inactive) | > 100 µM (inactive) | – | > 100 µM (inactive) | > 100 µM (inactive) | > 100 µM (inactive) | > 100 µM (inactive) | – | > 100 µM (inactive) | > 100 µM (inactive) | > 100 µM (inactive) | > 100 µM (inactive) | > 100 µM (inactive) | > 100 | > 100 µM (inactive) | > 100 µM (inactive) | > 100 µM (inactive) | > 100 µM (inactive) | > 100 µM (inactive)
C(CCCCc1nnc(N2CCCCC2)o1)CCCc1nnc(N2CCCCC2)o1 | > 100 µM (inactive) | > 100 µM (inactive) | > 100 µM (inactive) | > 100 µM (inactive) | > 100 µM (inactive) | > 100 µM (inactive) | > 100 µM (inactive) | – | > 100 µM (inactive) | > 100 µM (inactive) | > 100 µM (inactive) | > 100 µM (inactive) | > 100 µM (inactive) | > 100 | > 100 µM (inactive) | > 100 µM (inactive) | > 100 µM (inactive) | – | > 100 µM (inactive)
C=CCN1C(=O)/C(=C/c2ccccc2)NC1=S | > 100 µM (inactive) | > 100 µM (inactive) | > 100 µM (inactive) | > 100 µM (inactive) | > 100 µM (inactive) | > 100 µM (inactive) | > 100 µM (inactive) | – | 94.6 µM (inactive) | 74.1 µM (inactive) | > 100 µM (inactive) | 38.3 µM (inactive) | 88.9 µM (inactive) | > 100 | > 100 µM (inactive) | > 100 µM (inactive) | 65.5 µM (inactive) | > 100 µM (inactive) | > 100 µM (inactive)
COc1ccc(-c2[nH]c(=O)n(C3OC(CO)C(O)C(O)C3O)c(=O)c2C#N)cc1 (configuration not stated) | > 100 µM (inactive) | > 100 µM (inactive) | > 100 µM (inactive) | > 100 µM (inactive) | > 100 µM (inactive) and 86.1 µM (inactive) | > 100 µM (inactive) | > 100 µM (inactive) | – | > 100 µM (inactive) | > 100 µM (inactive) | > 100 µM (inactive) | > 100 µM (inactive) | > 100 µM (inactive) | > 100 | > 100 µM (inactive) | > 100 µM (inactive) | > 100 µM (inactive) | > 100 µM (inactive) | > 100 µM (inactive)
S=C1CCSc2c(ccc3ccccc23)N1 | > 100 µM (inactive) | > 100 µM (inactive) | – | > 100 µM (inactive) | > 100 µM (inactive) | > 100 µM (inactive) | > 100 µM (inactive) | > 100 µM (inactive) | 58.5 µM (inactive) | > 100 µM (inactive) | > 100 µM (inactive) | – | > 100 µM (inactive) | > 100 | > 100 µM (inactive) | > 100 µM (inactive) | > 100 µM (inactive) | 19.1 µM (inactive) | 41.4 µM (inactive)
COc1ccc(/C=C2\CSC/C(=C\c3ccc(OC)c(OC)c3OC)C2=O)c(OC)c1OC | 12.9 µM (inactive) | 24.1 µM (inactive) | > 10 µM (inactive) | > 100 µM (inactive) | 37.8 µM (inactive) | 17 µM (inactive) | – | 30.3 µM (inactive) | – | 42.3 µM (inactive) | 31.6 µM (inactive) | – | > 100 µM (inactive) | 25.6 | 32.4 µM (inactive) | 28.8 µM (inactive) | 28.3 µM (inactive) | – | 60.8 µM (inactive)
COC(=O)[C@@H](Cc1ccccc1)NNC(=O)OC(C)(C)C | > 100 µM (inactive) | > 100 µM (inactive) | > 100 µM (inactive) | – | > 100 µM (inactive) | > 100 µM (inactive) | > 100 µM (inactive) | – | > 100 µM (inactive) | > 100 µM (inactive) | > 100 µM (inactive) | > 100 µM (inactive) | > 100 µM (inactive) | > 100 | > 100 µM (inactive) | – | > 100 µM (inactive) | > 100 µM (inactive) | > 100 µM (inactive)
O=C(CCCCCCCCC(=O)NN1C(=O)/C(=C\c2ccc(O)c(O)c2)SC1c1ccc(Cl)cc1)NN1C(=O)/C(=C\c2ccc(O)c(O)c2)SC1c1ccc(Cl)cc1 (configuration not stated) | < 0.01 µM (active) | 10.7 µM (inactive) | 34.2 µM (inactive) | 5.35 µM (inactive) | 2.83 µM (inactive) | 24.6 µM (inactive) | 66.8 µM (inactive) | > 88.1 µM (inactive) | 2.87 µM (inactive) | 34 µM (inactive) | 25.8 µM (inactive) | 19.8 µM (inactive) | 21.3 µM (inactive) | 13.4 | 23.8 µM (inactive) | 57.7 µM (inactive) | 30.6 µM (inactive) | – | 10.3 µM (inactive)
CCO[C@@]1(COCc2ccccc2)OC(=O)C[C@@H]1N1C(=O)OC[C@@H]1c1ccccc1 | > 100 µM (inactive) | > 100 µM (inactive) | > 100 µM (inactive) | > 100 µM (inactive) | > 100 µM (inactive) | > 100 µM (inactive) | > 100 µM (inactive) | > 100 µM (inactive) | 84.3 µM (inactive) | > 100 µM (inactive) | > 100 µM (inactive) | > 100 µM (inactive) | > 100 µM (inactive) | > 100 | 32.5 µM (inactive) | > 100 µM (inactive) | > 100 µM (inactive) | – | 26.6 µM (inactive)
COc1ccccc1CNC1=Nc2ccncc2S(=O)(=O)N1c1ccccc1 | 95.5 µM (inactive) | 84.7 µM (inactive) | > 100 µM (inactive) | > 100 µM (inactive) | > 100 µM (inactive) | 70.5 µM (inactive) | > 100 µM (inactive) | – | 25.1 µM (inactive) | 82.8 µM (inactive) | > 100 µM (inactive) | 45.8 µM (inactive) | > 100 µM (inactive) | 49.7 | 56.6 µM (inactive) | > 100 µM (inactive) | 34 µM (inactive) | 74.8 µM (inactive) | –
COC(=O)CC(C(C(=O)OC)C(=O)OC)N1C(=O)OCC1c1ccccc1 (configuration not stated) | > 100 µM (inactive) | > 100 µM (inactive) | 28.5 µM (inactive) | > 100 µM (inactive) | > 100 µM (inactive) | > 100 µM (inactive) | – | – | > 100 µM (inactive) | > 100 µM (inactive) | > 100 µM (inactive) | > 100 µM (inactive) | > 100 µM (inactive) | > 100 | > 100 µM (inactive) | > 100 µM (inactive) | > 100 µM (inactive) | – | > 100 µM (inactive)
CC(C)(CCCCC(C)(C)[N+](C)(C)C)[N+](C)(C)C | > 100 µM (inactive) | > 100 µM (inactive) | > 100 µM (inactive) | > 100 µM (inactive) | > 100 µM (inactive) | > 100 µM (inactive) | > 100 µM (inactive) | > 100 µM (inactive) | > 100 µM (inactive) | > 100 µM (inactive) | > 100 µM (inactive) | – | > 100 µM (inactive) | > 100 | – | > 100 µM (inactive) | > 100 µM (inactive) | > 100 µM (inactive) | > 100 µM (inactive)
COC1=CC(=O)C[C@@H](C)[C@]12Oc1c(Cl)c(OC)cc(OC)c1C2=O [GRISEOFULVIN] | 33.3 µM (inactive) | 30.1 µM (inactive) | 17.2 µM (inactive) | 43.7 µM (inactive) | 17.4 µM (inactive) | 11.8 µM (inactive) | 2.42 µM (inactive) | – | 8.11 µM (inactive) | > 20.5 µM (inactive) | > 85.1 µM (inactive) | > 47.2 µM (inactive) | 63.5 µM (inactive) | 22.8 | 6.04 µM (inactive) | 16.8 µM (inactive) | 7.62 µM (inactive) | 11.9 µM (inactive) | 49.9 µM (inactive)
